The results in this text go back to US7854946B1, “Anti-inflammatory and anti-HIV compositions and methods of use” (Iowa State University Research Foundation, Inc., priority 2007, dated 2010).

What all share (type): cell-based, mouse
The subject of data set [1] is PGE2 production in LPS-induced macrophages. Briefly: PGE2 assay in LPS-induced RAW264.7 macrophages. The settings on record: pure compound in cell media, 1 μg/ml LPS, 8 hours. How it is done: RAW264.7 macrophages were purchased from the American Type Culture Collections (ATCC; […] Cells were plated at a density of 1.0×10^5 cells/well in 24-well cell culture plates and allowed to attach overnight. […] Louis, Mo.) and solvent alone, dimethylsulfoxide (DMSO) (Sigma, St. Louis, Mo.), or H. gentianoides extract or fraction simultaneously for 8 hours. Cell supernatants were collected on ice, and stored in a −70° C. freezer for use in the PGE2 assay. […] Four controls were included in each treatment: media alone, media and DMSO, media and LPS, and media and LPS and DMSO. In addition, 10 μM quercetin was used as a positive control. Since H. perforatum contains light-activated compounds, the H. gentianoides extract was tested in both light-activated and dark conditions initially to determine if the activity was dependent on light activation. […] The supernatant samples were assayed with a Prostaglandin E2 EIA kit (GE Biosciences, Piscataway, N.J.) according to manufacturer's instructions. […] Data is shown as mean percent reduction in LPS-induced PGE2 levels±the standard error as compared to the media+LPS+DMSO control. Statistical significance was determined by an F-protected two-way ANOVA followed by a Tukey-Kramer test for multiple comparisons (Snedecor, G. W., Cochran, W. G., Eds. (1989). Statistical Methods, 8th ed. University Press: Ames, Iowa). For cytotoxicity, data are represented as mean % cytotoxicity±standard error as compared to the media+DMSO control. Statistical significance was determined by an F-protected two-way ANOVA followed by a Dunnett-Hsu test for multiple comparisons (Dunnett C. W. (1955). “A multiple comparison procedure for comparing several treatments with a control.” Journal of the American Statistical Association. 50:1096-1121). […] The ability of H. gentianoides extracts to reduce the inflammatory response was assessed by quantifying PGE2 production in LPS-induced macrophages. […]

The next data set relates to RAW264.7 macrophages. Briefly: CellTiter96 cytotoxicity assay in RAW264.7 macrophages. The method, then:
CellTiter96® Aqueous One Solution cell proliferation assay (Promega Corporation, Madison, Wis.) was used as previously described in Schmitt et al. with an 8-hour treatment incubation instead of 24-hour treatment incubation to parallel the anti-inflammatory studies (Schmitt, L. A., et al., (2006)). Following the 8 hour incubation, treatment solutions were removed and fresh media and Celltiter96® dye were added for 3 hours and 15 minutes (Schmitt, L. A., et al., (2006)). The metabolized dye solutions were transferred to 96-well plates for absorbance measurement at 490 nm. The number of viable cells for each treatment was compared to the media+DMSO solvent control. Treatment with 20 μM hypericin was used as a positive control. Data is shown as mean percent reduction in LPS-induced PGE2 levels±the standard error as compared to the media+LPS+DMSO control. Statistical significance was determined by an F-protected two-way ANOVA followed by a Tukey-Kramer test for multiple comparisons (Snedecor, G. W., Cochran, W. G., Eds. (1989). Statistical Methods, 8th ed. University Press: Ames, Iowa). For cytotoxicity, data are represented as mean % cytotoxicity±standard error as compared to the media+DMSO control. Statistical significance was determined by an F-protected two-way ANOVA followed by a Dunnett-Hsu test for multiple comparisons (Dunnett C. W. (1955). “A multiple comparison procedure for comparing several treatments with a control.” Journal of the American Statistical Association. 50:1096-1121).

In a further data set the test system is cyclooxygenase-2. Briefly: Western blot of COX-2 protein in LPS-induced RAW 264.7 macrophages. To be noted: 8 hour treatment, dose not given. The method, then:
FIG. 9. […] After an 8 hour treatment with lipopolysaccharide (LPS) and H. gentianoides fractions, a protein extraction was performed on the RAW 264.7 macrophages. Separation of the proteins was carried out on a discontinuous (4% stacking, 10% resolving) sodium dodecyl sulfate-polyacrylamide (30% acrylamide/bis solution) (BioRad; Hercules, Calif.) gel, followed by transfer to a PVDF membrane (GE Healthcare; Piscataway, N.J.) at 100V for 2.5 hours. COX-2 rabbit polyclonal antibody (Santa Cruz Biotechnology, Santa Cruz, Calif.) was diluted 1:1000 in 5% milk Tris-buffered saline with 0.5% Tween-20 (TBS-T). The secondary antibody (goat, anti-rabbit IgG, HRP conjugated, Santa Cruz Biotechnology; Santa Cruz, Calif.) was diluted 1:1000 in 5% milk in TBS-T. Detection was visualized on blue sensitive autoradiographic film (Marsh Bioproducts; Rochester, N.Y.) with a chemiluminescence (ECLplus) detection kit (GE Healthcare; Piscataway, N.J.).
After an 8 hour treatment with lipopolysaccharide (LPS) and H. gentianoides fractions, RAW 264.7 cells were rinsed twice with ice cold 1× phosphate buffered saline (PBS). […] The protein concentration in each lysate was determined using the bicinchonic acid and copper sulfate protein assay (Sigma; St. Louis, Mo.). […]

The test system of the next data set is cyclooxygenase-1. Briefly: Western blot of COX-1 protein in LPS-induced RAW 264.7 macrophages. The settings on record: 8 hour treatment.

With `CC(C)=CCc1c(O)c(CC2=C(O)C(C)=C(O)C(CC=C(C)C)(C(=O)C(C)C)C2=O)c(O)c(C(=O)C(C)C)c1O` (centres unmarked) [hyperbrasilol C], in data set [1], the “lowest tested dose with significant reduction of PGE2 concentrations” value came out at 10 µM. Also, in the data set with RAW264.7 macrophages (dose of 100 μM), the cytotoxicity result was “no significant cytotoxicity”.

For the compound `Cc1c(O)c(CC2=C(O)C(C)(C)C(=O)C(C(=O)C(C)C)=C2O)c(O)c(C(=O)C(C)C)c1O` [saroaspidin A], the cyclooxygenase-2 enzyme result in the data set with cyclooxygenase-2 is “reduces”. Besides, the cyclooxygenase-1 protein result with cyclooxygenase-1 is listed as “does not appear to be affected”. For the same compound, the “lowest tested dose with significant reduction of PGE2 concentrations” value in data set [1] stood at 2 µM. Also, the “doses at which significant cytotoxicity stops” value in the data set with RAW264.7 macrophages (RAW264.7 macrophages, tested 0.5-100 μM) was at most 10 µM.

With `CC(C)=CCc1c(O)c(CC2=C(O)C(C)(C)C(=O)C(C(=O)C(C)C)=C2O)c(O)c(C(=O)C(C)C)c1O` [uliginosin A], in data set [1], the “lowest tested dose with significant reduction of PGE2 concentrations” value came to 10 µM. The “tested dose from which cytotoxicity is significant” value in the data set with RAW264.7 macrophages (RAW264.7 macrophages) was determined as 100 µM.
